Reference: US20230085307A1, “PYRIDAZINONE COMPOUND AND HERBICIDE” (NISSAN CHEMICAL CORPORATION, priority 2019, published 2023)

Experiments:
[1] = test system: velvetleaf; assay: Test Example 5: herbicidal effect by foliage application, plastic box (Table 20, symbol M); type: in vivo, velvetleaf (Abutilon theophrasti); settings: foliage application, 320 g/ha, 3 weeks after application
In short: (§1)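 Foliar spray test: emulsion formulation diluted in water to a set application rate, sprayed onto 14-day-old plants raised in diluvial soil at 25° C to 30° C under glass. Both herbicidal effect and crop effect rated visually three weeks later.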

[2] = test system: windgrass; assay: Test Example 5: herbicidal effect by foliage application, plastic box (Table 20, symbol L); type: in vivo, windgrass (Apera spica-venti); settings: foliage application, 320 g/ha, 3 weeks after application
In short: as §1

[3] = test system: rice flat sedge; assay: Test Example 3: herbicidal effect by foliage application, Wagner pot (Table 18, symbol E); type: in vivo, rice flat sedge (Cyperus iria); settings: 320 g/ha
In short: (§2)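 Plants were sown in alluvial soil held under 0.1–0.5 cm standing water and grown 14 days in a greenhouse at 25–30 °C. An emulsifiable formulation, water-diluted to the set dose, was then sprayed onto the foliage, and effects were scored three weeks later using previously defined criteria.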

[4] = test system: blackgrass; assay: Test Example 5: herbicidal effect by foliage application, plastic box (Table 20, symbol J); type: in vivo, blackgrass (Alopecurus myosuroides); settings: foliage application, 320 g/ha, 3 weeks after application
In short: as §1

[5] = test system: windgrass; assay: Test Example 4: herbicidal effect by soil treatment (Table 19, symbol L); type: in vivo, windgrass (Apera spica-venti); settings: 320 g/ha
In short: (§3)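 Step 1: sow seeds in sterilized diluvial soil, cover ~1.5 cm. Step 2: spray diluted emulsion onto soil surface at predetermined rate. Step 3: greenhouse, 25–30° C, three weeks. Step 4: grade effect on each plant by earlier criteria.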

[6] = test system: redroot pigweed; assay: Test Example 4: herbicidal effect by soil treatment (Table 19, symbol N); type: in vivo, redroot pigweed (Amaranthus retroflexus); settings: 320 g/ha
In short: as §3

[7] = test system: barnyard grass; assay: Test Example 4: herbicidal effect by soil treatment (Table 19, symbol H); type: in vivo, barnyard grass (Echinochloa crus-galli); settings: 320 g/ha
In short: as §3

[8] = test system: oval-leafed pondweed; assay: Test Example 1: herbicidal activity, application before weed generation under submerged conditions (Table 16, symbol C); type: in vivo, oval-leafed pondweed (Monochoria vaginalis); settings: 320 g/ha applied herbicide
In short: (§4)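 Alluvial soil was flooded to 4 cm depth, weed seeds were sown mixed and 2.5-leaf rice seedlings were transplanted. On sowing day, the compound's emulsion, diluted in water to a set dose, was applied to the water surface. Plants grew at 25–30 °C and were scored 0–5 after three weeks.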

[9] = test system: southern crabgrass; assay: Test Example 4: herbicidal effect by soil treatment (Table 19, symbol F); type: in vivo, southern crabgrass (Digitaria ciliaris); settings: 320 g/ha
In short: as §3

[10] = test system: southern crabgrass; assay: Test Example 5: herbicidal effect by foliage application, plastic box (Table 20, symbol F); type: in vivo, southern crabgrass (Digitaria ciliaris); settings: foliage application, 320 g/ha, 3 weeks after application
In short: as §1

[11] = test system: green foxtail; assay: Test Example 5: herbicidal effect by foliage application, plastic box (Table 20, symbol G); type: in vivo, green foxtail (Setaria viridis); settings: foliage application, 320 g/ha, 3 weeks after application
In short: as §1

[12] = test system: Italian ryegrass; assay: Test Example 4: herbicidal effect by soil treatment (Table 19, symbol K); type: in vivo, Italian ryegrass (Lolium multiflorum); settings: 320 g/ha
In short: as §3

[13] = test system: persian speedwell; assay: Test Example 5: herbicidal effect by foliage application, plastic box (Table 20, symbol R); type: in vivo, Persian speedwell (Veronica persica); settings: foliage application, 320 g/ha, 3 weeks after application
In short: as §1

[14] = test system: blackgrass; assay: Test Example 4: herbicidal effect by soil treatment (Table 19, symbol J); type: in vivo, blackgrass (Alopecurus myosuroides); settings: 320 g/ha
In short: as §3

[15] = test system: green foxtail; assay: Test Example 4: herbicidal effect by soil treatment (Table 19, symbol G); type: in vivo, green foxtail (Setaria viridis); settings: 320 g/ha
In short: as §3

[16] = test system: wild oat; assay: Test Example 4: herbicidal effect by soil treatment (Table 19, symbol I); type: in vivo, wild oat (Avena fatua); settings: 320 g/ha
In short: as §3

[17] = test system: Japanese bulrush; assay: Test Example 1: herbicidal activity, application before weed generation under submerged conditions (Table 16, symbol B); type: in vivo, Japanese bulrush (Schoenoplectus juncoides); settings: 320 g/ha applied herbicide
In short: as §4

[18] = test system: persian speedwell; assay: Test Example 4: herbicidal effect by soil treatment (Table 19, symbol R); type: in vivo, Persian speedwell (Veronica persica); settings: 320 g/ha
In short: as §3

[19] = test system: late watergrass; assay: Test Example 1: herbicidal activity, application before weed generation under submerged conditions (Table 16, symbol A); type: in vivo, late watergrass (Echinochloa oryzicola); settings: 320 g/ha applied herbicide
In short: as §4

[20] = test system: velvetleaf; assay: Test Example 4: herbicidal effect by soil treatment (Table 19, symbol M); type: in vivo, velvetleaf (Abutilon theophrasti); settings: 320 g/ha
In short: as §3

[21] = test system: barnyard grass; assay: Test Example 3: herbicidal effect by foliage application, Wagner pot (Table 18, symbol H); type: in vivo, barnyard grass (Echinochloa crus-galli); settings: 320 g/ha
In short: as §2

[22] = test system: Chinese sprangletop; assay: Test Example 3: herbicidal effect by foliage application, Wagner pot (Table 18, symbol D); type: in vivo, chinese sprangletop (Leptochloa chinensis); settings: 320 g/ha
In short: as §2

[23] = test system: lambsquarters; assay: Test Example 4: herbicidal effect by soil treatment (Table 19, symbol O); type: in vivo, lambsquarters (Chenopodium album); settings: 320 g/ha
In short: as §3

[24] = test system: barnyard grass; assay: Test Example 5: herbicidal effect by foliage application, plastic box (Table 20, symbol H); type: in vivo, barnyard grass (Echinochloa crus-galli); settings: foliage application, 320 g/ha, 3 weeks after application
In short: as §1

[25] = test system: Italian ryegrass; assay: Test Example 5: herbicidal effect by foliage application, plastic box (Table 20, symbol K); type: in vivo, Italian ryegrass (Lolium multiflorum); settings: foliage application, 320 g/ha, 3 weeks after application
In short: as §1

[26] = test system: chickweed; assay: Test Example 4: herbicidal effect by soil treatment (Table 19, symbol P); type: in vivo, common chickweed (Stellaria media); settings: 320 g/ha
In short: as §3

[27] = test system: wild oat; assay: Test Example 5: herbicidal effect by foliage application, plastic box (Table 20, symbol I); type: in vivo, wild oat (Avena fatua); settings: foliage application, 320 g/ha, 3 weeks after application
In short: as §1

[28] = test system: lambsquarters; assay: Test Example 5: herbicidal effect by foliage application, plastic box (Table 20, symbol O); type: in vivo, lambsquarters (Chenopodium album); settings: foliage application, 320 g/ha, 3 weeks after application
In short: as §1

Structure (SMILES) | effect on velvetleaf (M) [1] | effect on windgrass (L) [2] | herbicidal effect on E (rice flat sedge), rating 0-5 [3] | effect on blackgrass (J) [4] | herbicidal effect rating, L: windgrass [5] | herbicidal effect rating, N: redroot pigweed [6] | herbicidal effect rating, H: barnyard grass [7] | Herbicidal effect on C: oval-leafed pondweed (grade 0-5) [8] | herbicidal effect rating, F: southern crabgrass [9] | effect on southern crabgrass (F) [10] | effect on green foxtail (G) [11] | herbicidal effect rating, K: Italian ryegrass [12] | effect on persian speedwell (R) [13] | herbicidal effect rating, J: blackgrass [14] | herbicidal effect rating, G: green foxtail [15] | herbicidal effect rating, I: wild oat [16] | Herbicidal effect on B: Japanese bulrush (grade 0-5) [17] | herbicidal effect rating, R: persian speedwell [18] | Herbicidal effect on A: late watergrass (grade 0-5) [19] | herbicidal effect rating, M: velvetleaf [20] | also measured
Cc1nn(C)c(=O)c(-c2c(-c3ccc(C(C)C)cc3)sc3ccc(F)cc23)c1O [2-014] | 5 (Herbicidal rate of 90% or more (almost completely withered)) | 5 (Herbicidal rate of 90% or more (almost completely withered)) | 5 (Herbicidal rate of 90% or more (almost completely withered)) | 4 (Herbicidal rate of 70% or more and less than 90%) | 3 (Herbicidal rate of 40% or more and less than 70%) | 5 (Herbicidal rate of 90% or more (almost completely withered)) | 4 (Herbicidal rate of 70% or more and less than 90%) | 0 (Herbicidal rate of 5% or less (almost no effect)) | 0 (Herbicidal rate of 5% or less (almost no effect)) | 5 (Herbicidal rate of 90% or more (almost completely withered)) | 5 (Herbicidal rate of 90% or more (almost completely withered)) | 4 (Herbicidal rate of 70% or more and less than 90%) | 5 (Herbicidal rate of 90% or more (almost completely withered)) | 0 (Herbicidal rate of 5% or less (almost no effect)) | 2 (Herbicidal rate of 20% or more and less than 40%) | 0 (Herbicidal rate of 5% or less (almost no effect)) | 0 (Herbicidal rate of 5% or less (almost no effect)) | 5 (Herbicidal rate of 90% or more (almost completely withered)) | 3 (Herbicidal rate of 40% or more and less than 70%) | 3 (Herbicidal rate of 40% or more and less than 70%) | herbicidal effect on H (barnyard grass), rating 0-5 [21]: 5 (Herbicidal rate of 90% or more (almost completely withered)); herbicidal effect on D (Chinese sprangletop), rating 0-5 [22]: 5 (Herbicidal rate of 90% or more (almost completely withered)); herbicidal effect rating, O: lambsquarters [23]: 5 (Herbicidal rate of 90% or more (almost completely withered)); effect on barnyard grass (H) [24]: 5 (Herbicidal rate of 90% or more (almost completely withered)); effect on Italian ryegrass (K) [25]: 5 (Herbicidal rate of 90% or more (almost completely withered)); herbicidal effect rating, P: chickweed [26]: 4 (Herbicidal rate of 70% or more and less than 90%); effect on wild oat (I) [27]: 2 (Herbicidal rate of 20% or more and less than 40%); effect on lambsquarters (O) [28]: 5 (Herbicidal rate of 90% or more (almost completely withered))
CCCCCCOc1ccc(-c2sc3ccc(F)cc3c2-c2c(OC(=O)CCC)c(C)nn(C)c2=O)cc1 [2-041] | 1 (Herbicidal rate of 5% or more and less than 20%) | 0 (Herbicidal rate of 5% or less (almost no effect)) | 1 (Herbicidal rate of 5% or more and less than 20%) | 0 (Herbicidal rate of 5% or less (almost no effect)) | 0 (Herbicidal rate of 5% or less (almost no effect)) | 0 (Herbicidal rate of 5% or less (almost no effect)) | 0 (Herbicidal rate of 5% or less (almost no effect)) | 0 (Herbicidal rate of 5% or less (almost no effect)) | 0 (Herbicidal rate of 5% or less (almost no effect)) | 0 (Herbicidal rate of 5% or less (almost no effect)) | 0 (Herbicidal rate of 5% or less (almost no effect)) | 0 (Herbicidal rate of 5% or less (almost no effect)) | 3 (Herbicidal rate of 40% or more and less than 70%) | 0 (Herbicidal rate of 5% or less (almost no effect)) | 0 (Herbicidal rate of 5% or less (almost no effect)) | 0 (Herbicidal rate of 5% or less (almost no effect)) | 0 (Herbicidal rate of 5% or less (almost no effect)) | 0 (Herbicidal rate of 5% or less (almost no effect)) | 3 (Herbicidal rate of 40% or more and less than 70%) | 0 (Herbicidal rate of 5% or less (almost no effect)) | herbicidal effect on H (barnyard grass), rating 0-5 [21]: 3 (Herbicidal rate of 40% or more and less than 70%); herbicidal effect on D (Chinese sprangletop), rating 0-5 [22]: 3 (Herbicidal rate of 40% or more and less than 70%); herbicidal effect rating, O: lambsquarters [23]: 2 (Herbicidal rate of 20% or more and less than 40%); effect on barnyard grass (H) [24]: 0 (Herbicidal rate of 5% or less (almost no effect)); effect on Italian ryegrass (K) [25]: 0 (Herbicidal rate of 5% or less (almost no effect)); herbicidal effect rating, P: chickweed [26]: 0 (Herbicidal rate of 5% or less (almost no effect)); effect on wild oat (I) [27]: 0 (Herbicidal rate of 5% or less (almost no effect)); effect on lambsquarters (O) [28]: 3 (Herbicidal rate of 40% or more and less than 70%)
